Values quoted from earlier work, collected in patent US20240366754A1, “PHARMACEUTICAL COMPOSITIONS FOR DELIVERY OF VIRAL ANTIGENS AND RELATED METHODS” (BioNTech SE, priority 2021, published 2024).
Entries after “also recorded” stand apart in the source; their conditions may differ. Where two headings read alike, the source gives them in different places.

Assays:
[1] = tested on: norovirus; conditions: in vivo

| Structure (SMILES) | Most common adverse effects (Intravenous formulations) | Most common adverse effects (Oral formulations) | effect on norovirus illness [1] |
| --- | --- | --- | --- |
| Nc1nc2c(ncn2COCCO)c(=O)[nH]1 [acyclovir] | phlebitis, acute renal; also recorded: failure, nausea,; also recorded: vomiting, rash | malaise, headache,; also recorded: nausea, vomiting | – |
| CC(=O)OCC(CCn1cnc2cnc(N)nc21)COC(C)=O [famciclovir] | – | headache, nausea,; also recorded: fatigue, diarrhea | – |
| O=C(O)P(=O)(O)O [foscarnet] | fever, headache,; also recorded: renal dysfunction,; also recorded: electrolyte; also recorded: abnormalities,; also recorded: nausea, vomiting; also recorded: diarrhea, anemia,; also recorded: granulocytopenia | – | – |
| CC(=O)Oc1ccccc1C(=O)Nc1ncc([N+](=O)[O-])s1 [nitazoxanide] | – | – | reduce the duration of illness |
| CC(C)[C@H](N)C(=O)OCCOCn1cnc2c(=O)[nH]c(N)nc21 [valacyclovir] | – | headache, nausea,; also recorded: abdominal pain | – |
